Experimental data: US7745390B2, “Antimicrobial peptides” (priority 2005, dated 2010)
In brackets after ≈: the same amount, converted by molar mass. Where two headings read alike, the source gives them in different places. Square brackets hold non-standard residues; d marks the D form. Ends that are not written are not given here. Peptide text beside a SMILES is read from it.

What was measured:
B. cereus [1] = assay type: cell-based
Procedure, shortened: (§1)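 First, peptides in 10 mM phosphate pH 7.2 with 0.03% LB meet bacteria (~5×10^6 CFU/ml). Second, incubation runs 3 h at 37 °C. Third, LB is added and plates grow overnight before OD600 reading.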

E. coli DH5a = assay type: cell-based
Procedure, shortened: as §1

Salmonella = assay type: cell-based, S. typhimurium
Procedure, shortened: as §1

[2] = tested on: human peripheral blood mononuclear cells (PBMC); assay: Propidium iodide uptake in PBMC; assay type: cell-based
From the text: The second assay for effects on mammalian cells involved isolating human peripheral blood mononuclear cells (PBMC) and testing peptide induced uptake of propidium iodide (PI), a measure of membrane disruption. […] Thus, the vast majority of granulysin peptide derivatives are not toxic to mammalian cells even at high concentrations.

bacterial strains = assay: organism not typed; assay type: cell-based
Method: (§2) Three preferred peptides G11.46, G12.21 and G14.15, discussed above, were further tested for antimicrobial efficacy under various conditions using the 10% FCS/DMEM assay as described under CFU assay. The incubation times with the bacteria and peptide was three hours, at which time the bacteria were diluted and plated on agar. […] The MIC for each compound is highlighted.
Table 9 below repeats some data presented above in Tables 6, 7, and 8.

B. cereus [3] = assay: CFU assay in 10% FCS/DMEM; assay type: cell-based; details: 3 hrs
Method: (§3) The CFU assay is the “gold standard” for evaluating antibiotics. Briefly, bacteria are grown overnight in rich medium, such as LB, and then diluted and grown in log phase for 2-4 hours. Cultures are set up as above, with the initial culture media being 10 mM phosphate buffer/0.03% LB; DMEM or RPMI; or DMEM or RPMI plus 10% serum (fetal calf, human, or mouse). After various periods of time, but generally 3 hours or less, aliquots are removed, diluted in LB at various dilutions, and plated on LB agar plates. Plates are incubated overnight at 37° C. and counted on an automatic colony counter.
as §2

bacteria [4] = assay: Activity in DMEM and RPMI media (lysis of bacteria); assay type: cell-based; parameters: key to Active in DMEM: YES: Active in DMEM; a blank means no activity; details: Table 2; tested in DMEM and RPMI
Method: as §3
In the column “Active in DMEM”, a blank means no activity. MAP stands for multiple antigenic peptide, where a number of identical peptide chains are synthesized and joined to a common core (like a dendrimer).
The peptides listed in Table 2 were tested in DMEM and RPMI, media that approximate blood and tissue conditions in vivo and those that were active under these conditions are listed in the last column (active in DMEM). […] No peptides that were all L-isomer peptides lysed bacteria in DMEM supplemented with serum.
The hydrophobic moment is a measure of amphipathicity and indicates how well the hydrophobic residues fall on one side of the helix while the hydrophilic residues fall on the opposite side is shown in column 7. This was determined using the Membrane Explorer Program (http://blanco.biomol.uci.edu/mpex/). A high number indicates a high hydrophobic moment. Column 8 again (like Table 2) indicates which of these peptides is active in DMEM.

bacteria [5] = assay: Activity in serum containing media (10% FCS in DMEM or RPMI); assay type: cell-based; details: 10% FCS in DMEM or RPMI
Method: as §3
Tests were conducted in low salt concentrations so that active peptide candidates could be identified more readily. It is important for in vivo applications that the present antimicrobial peptides be active in physiological salt concentrations (150 mM) as well as in the presence of other tissue components, such as blood plasma (serum). Serum may contain proteases that destroy peptides; the use of D-amino acids can improve protease resistance. See G12.21. […] Also active were G11.6, G11.26, G11.29, G11.30, G11.34, G11.35, G12.11, G12.19, G12.20 and G12.21. […]

[6] = 10 mM phosphate buffer, pH 7.2, 0.03% LB

Row | Compound | B. cereus MIC (B. cereus [1]; pH 7.2) | IC50 (B. cereus [1]; pH 7.2) | MIC (E. coli DH5a; DH5a) | E. coli DH5a MIC (E. coli DH5a; DH5a, pH 7.2) | IC50 (E. coli DH5a; DH5a, pH 7.2) | IC50 (Salmonella; pH 7.2) | Salmonella MIC (Salmonella; pH 7.2) | MIC (bacterial strains; ATCC#25922, 3 h) | MIC (bacterial strains; ATCC#29213, 3 h) | MIC (bacterial strains; ATCC#53522, 3 h) | MIC (bacterial strains; SL1344, 3 h) | Active in DMEM (bacteria [4]) | active in serum containing media (bacteria [5]) | also measured
1 | CSCC[C@@H](NC(=O)[C@H]1CCCN1C(=O)[C@@H](CCCNC(=N)N)NC(=O)[C@@H](CCCNC(=N)N)NC(=O)[C@@H](CO)NC(=O)[C@H](NC(=O)[C@@H](CCCNC(=N)N)NC(=O)[C@H](N)CCCNC(=N)N)C(C)C)C(=O)N[C@H](CCCNC(=N)N)C(=O)N[C@H](CCCNC(=N)N)C(=O)N[C@H](Cc1ccc(O)cc1)C(=O)N[C@H](CCCNC(=N)N)C(=O)N[C@H](CO)C(=O)N[C@H](CCCNC(=N)N)C(=O)N[C@H](CCCNC(=N)N)C(=O)N1CCC[C@@H]1C(=O)N[C@H](CCCNC(=N)N)C(=O)N[C@H](CCCNC(=N)N)C(=O)N[C@H](CC(C)C)C(=O)N[C@@H](C(=O)O)C(C)C [Peptide G12.21, rrvsrrpmrryrsrrprrlv] (H-[dR][dR][dV][dS][dR][dR][dP][dM][dR][dR][dY][dR][dS][dR][dR][dP][dR][dR][dL][dV]-OH) | 0.35 µM | 210 nM | 0.2 µM (≈ 0.542 µg/mL) | 0.2 µM | < 78 nM | 210 nM | 0.35 µM | 0.63 µM (≈ 1.71 µg/mL) | 0.32 to 0.63 µM | 0.02 µM (≈ 0.0542 µg/mL) | 1.25 to 2.5 µM |  |  | toxicity against mammalian cells [2]: no toxicity
2 | CSCC[C@@H](NC(=O)[C@@H](Cc1ccccc1)NC(=O)[C@@H](CCCNC(=N)N)NC(=O)[C@@H](CCCNC(=N)N)NC(=O)[C@@H](CO)NC(=O)[C@H](NC(=O)[C@@H](CCCNC(=N)N)NC(=O)[C@@H](CCCNC(=N)N)NC(=O)[C@@H](Cc1c[nH]c2ccccc12)NC(=O)[C@@H](CCCNC(=N)N)NC(=O)[C@@H](CO)NC(=O)[C@@H](CCCNC(=N)N)NC(=O)CN)C(C)C)C(=O)N[C@H](CCCNC(=N)N)C(=O)N[C@H](CCCNC(=N)N)C(=O)O [Peptide G14.15, grsrwrrvsrrfmrr] (H-G[dR][dS][dR][dW][dR][dR][dV][dS][dR][dR][dF][dM][dR][dR]-OH) | 0.2 µM | < 78 nM | 0.3 µM (≈ 0.619 µg/mL) | 0.1 µM | < 78 nM | 150 nM | 0.35 µM | 0.63 to 1.25 µM | 10 µM (≈ 20.6 µg/mL) | 0.16 µM (≈ 0.33 µg/mL) | 2.5 to 5 µM |  |  | PI uptake in normal human PBMC ([2]; 50 μM peptide, three hours): caused PI uptake in normal human PBMC
3 | CN[C@H](CC(C)C)C(=O)N[C@H]1C(=O)N[C@@H](CC(N)=O)C(=O)N[C@H]2C(=O)N[C@H]3C(=O)N[C@H](C(=O)N[C@H](C(=O)O)c4cc(O)cc(O)c4-c4cc3ccc4O)[C@H](O)c3ccc(c(Cl)c3)Oc3cc2cc(c3O[C@@H]2O[C@H](CO)[C@@H](O)[C@H](O)[C@H]2O[C@H]2C[C@](C)(N)[C@H](O)[C@H](C)O2)Oc2ccc(cc2Cl)[C@H]1O [vancomycin, reference compound] |  |  |  |  |  |  |  |  |  |  |  |  |  | % Survival (CFU Assay) (B. cereus [3]; 0.08 uM): 97.67%; % Survival (CFU Assay) (B. cereus [3]; 0.16 uM): 113.37%; % Survival (CFU Assay) (B. cereus [3]; 0.32 uM): 79.59%; % Survival (CFU Assay) (B. cereus [3]; 0.63 uM): 63.73%; % Survival (CFU Assay) (B. cereus [3]; 1.25 uM): 9.06%; % Survival (CFU Assay) (B. cereus [3]; 2.5 uM): 1.09%; MIC (bacterial strains; 3 h): > 10 µM; MIC (bacterial strains; Bacillus cereus, ATCC53522, 3 h): 2.5 µM (≈ 3.62 µg/mL)
4 | CRRVSRRFMRRC [G11.29 CYC] |  |  |  |  |  |  |  |  |  |  |  | YES | active | B. cereus MIC (B. cereus [1]; [6]): 1.39 µM; IC50 (B. cereus [1]; 10 mM phosphate buffer, pH 7.2, 0.03% LB, read-out: B. cereus IC50): 890 nM; E. coli DH5a MIC (E. coli DH5a; [6]): 1.4 µM; IC50 (E. coli DH5a; 10 mM phosphate buffer, pH 7.2, 0.03% LB, read-out: E. coli DH5a IC50): 750 nM; Salmonella MIC (Salmonella; [6]): 2.8 µM; IC50 (Salmonella; 10 mM phosphate buffer, pH 7.2, 0.03% LB, read-out: Salmonella IC50): 1750 nM
5 | RDVSRRFMRRGSRDVSRRFMRR [Peptide G11.6] | 2.4 µM | 890 nM |  | 0.7 µM | 450 nM | 890 nM | 1.4 µM |  |  |  |  | YES | active | 
